Data taken from US12006509B2, “Macrotumor engineering” (Purdue Research Foundation, priority 2019, dated 2024).
“Also recorded” adds a separate entry of the source.

Assays:
[1] = tested on: macrotumors formed by T4-2 cells; assay: Weekly doxorubicin treatment of macrotumors, pathological assessment of nuclear morphology; type: cell-based; details: 10 μM; 24 h weekly for three weeks; assessed at days 7 and 21
Experimental: (§1) FIG. 6. Effect of Doxorubicin treatment on macrotumors formed by T4-2 cells. a. Images of macrotumors treated (Dox) or untreated (Control) with 10 μM doxorubicin at day 0, for 24 hours and further cultured for six days. n=two replicates for this experiment (1, 2). b. Shown are the surface areas of macrotumors from A measured at days 0, 1, 2, 4, 5, and 7. c. Another experiment with 24 h Doxorubicin (Dox) treatment at day 0, 7 and 14 with images taken at day 0 and 21. Size bars, 5 mm
Macrotumors were fixed in 4% paraformaldehyde (Santa Cruz; Dallas, TX) prior to embedding in paraffin at the Histology Research Laboratory, Department of Comparative Pathobiology, Purdue University, according to standard protocols used for tumor sample embedding, sectioning, immunohistochemistry with polyclonal antibodies against caspase 3 (1/200; Cell Signaling Tech, Danvers, MA) and Ki67 (1/500; Millipore-Sigma, St Louis, MO) and hematoxylin & eosin (H&E) staining. Certain sections were stained with toluidine blue (SigmaAldrich, St. Louis, MO) before H&E staining.

[2] = tested on: macrotumors formed by T4-2 cells; assay: Doxorubicin uptake in macrotumors (autofluorescence, confocal Z-sections); type: cell-based; details: 4-h treatment, 10 μg/ml [17.25 μM], macrotumors cultured 24 h
Experimental: FIG. 1. Differential centrifugation of small tumor nodules leads to the formation of simple and mixed types of macrotumors with in vivo like pathological features. The formation of tumors of up to 600 μm in size was induced by culturing either IDC T4-2 cells or S2 DCIS cells in Matrigel™ drip culture for 10 days. Upon release from Matrigel™ with dispase treatment, tumor nodules were incubated with 100 μg/ml fibronectin solution, spun down either as a single type of nodules (9,000 nodules; a-e) or as mixed types of nodules (4,500 nodules of each tumor type; f-g) and embedded in collagen I (2,000 Pa) as detailed in the methods section. a. […] Macrotumors cultured for 24 h were incubated with 17.25 μM doxorubicin for four hours and imaged with bright field and fluorescence microscopy (doxorubicin autofluorescence in the red channel). […] Fluorescence images of macrotumors formed by DiI-stained T4-2 nodules, CellMask™ Green-stained S2 nodules and mixed types of macrotumors with T4-2 and S2 nodules (either mixed before centrifugation ‘T4-2/S2 by mixing’ or sequentially centrifuged ‘T4-2/S2 by stacking’) taken with a Nikon®ECLIPSE® Ts2 inverted microscope (Nikon, Melville, NY). g. […] In D, 50 nuclei analyzed in two biological replicates for macrotumors and 100 nuclei analyzed per section of three tissue samples; *P<0.05 **P<0.01; ANOVA with Tukey's posthoc test. […]

[3] = tested on: macrotumors formed by T4-2 cells; assay: Doxorubicin treatment of macrotumors, tumor size (surface area); type: cell-based; details: 10 μM; 24 h, followed by six-day resting period
Experimental: as §1
Images of whole tumors in culture and of paper scaffold were taken with a Plugable USB 2.0 Digital Microscope (Plugable Technologies, Redmond, WA). Tumor size (short and long axis) was measured with ImageJ. For pathological assessment slides were either directly visualized by microscopy or scanned (20× objective) with an Aperio/Pathology Slide Scanner (Leica Biosystems Inc., Buffalo Grove, IL).

[4] = Stiffness measurement of collagen I with fibronectin (compression test); type: physicochemical; details: fibronectin with collagen I vs collagen I only
Experimental: FIG. 3. Impact of fibronectin on macrotumors. Small tumors (9000) preformed in Matrigel™ for 10 days were used to make macrotumors as described in the Methods section with or without incubation with 100 μg/ml fibronectin. a. Macrotumors prepared without fibronectin incubation and cultured for 24 hours (right images at 40× magnification). b. Comparison of volumes and areas of macrotumors with (+) or without (−) incubation with fibronectin after 30 minutes (0.5 h) and 24 h of culture; n=5, mean+/−SEM. c. Stiffness of collagen I (Young's modulus, Pa) prepared with Collagen I, and measured with customized eXpert 4000, ADMET by constant pressure on unconstrained sample (see reference 15 for details for this procedure). d. Staining with H&E of macrotumors prepared without incubation with fibronectin. e. representative images of macrotumors and nodules (mixed in collagen I for 10 minutes without prior centrifugation). Shown is the bar graph of the percentage of cells positive for proliferation marker Ki67 staining after 24 h of culture of macrotumors in collagen I or collagen I+fibronectin (F), or nodules (mixed in collagen I for 10 minutes without prior centrifugation); n=2; 150 nuclei analyzed per biological replicate. […]
The elastic modulus of cultured samples can be calculated from engineered stress-strains curve attained with compression tests. […]

Row | Compound | nuclear morphology (pathological assessment) [1] | drug uptake / penetration in the macrotumor [2] | tumor size [3] | ECM stiffness [4]
1 | COc1cccc2c1C(=O)c1c(O)c3c(c(O)c1C2=O)C[C@@](O)(C(=O)CO)C[C@@H]3O[C@H]1C[C@H](N)[C@H](O)[C@H](C)O1 [doxorubicin] | increasingly affected | penetration of doxorubicin in all areas of the macrotumor; also recorded: drug uptake occurred throughout the macrotumors | appeared to decrease tumor size after day 4 | –
2 | Fibronectin | – | – | – | slightly raised
